Measured values as given in patent publication US11016062B2, “System and method of measuring cell viability and growth” (University of South Florida, priority 2015, dated 2021).
pIC50: −log10 of the molar value.

Tests used:
[1] = test system: BT474-MCTs; assay: Sensitivity of BT474 multi-cell tumoroids (MCTs, co-culture with ECs and CAFs) on PNS to lapatinib, PrestoBlue cell viability; assay type: cell-based; conditions: Homo sapiens, BT-474, BT474-MCTs in the presence of ECs and CAFs on PNS, lapatinib 72 h
Protocol: (§1) FIGS. 9A-C are a series of images depicting growth of BT474 derived SCTs (A) and MCTs (B) for 6 days on PNS; tumoroids are stained with calcein AM/EthD-1. Confocal (merged z-stacked) images showing presence of ECs (vWF, green cells), CAFs (SMA positive, red cells) and DAPI (cell nuclei) in BT474-MCTs imaged by confocal microscopy (merged z-stacked images). (C) Differential response of BT474-SCTs and -MCTs to lapatinib. On day 2 after co-culture, BT474 cells were treated with increasing concentrations (μM) of lapatinib for 72 h; cell viability was measured by PrestoBlue assay.
The inventors established conditions to co-culture tumor cells with ECs and CAFs to allow formation of robust MCTs. […] The presence of CAFs and ECs in the MCTs was confirmed by immunohistochemistry using anti-smooth muscle actin (SMA) and antivon Willebrand factor (vWF) antibodies for CAFs and ECs, respectively, followed by confocal microscopy (FIG. 9B). On day 5 after co-culture, CAFs were found dispersed throughout the MCT, whereas ECs were found mostly on the edge of the MCT.
The inventors examined sensitivity of BT474-SCTs and -MCTs to lapatinib. […]

[2] = test system: BT474-SCTs; assay: Sensitivity of BT474 single cell-line tumoroids (SCTs) on PNS to lapatinib, PrestoBlue cell viability; assay type: cell-based; conditions: Homo sapiens, BT-474, BT474-SCTs cultured on PNS, lapatinib 72 h
Protocol: as §1
The inventors examined sensitivity of BT474-SCTs and -MCTs to lapatinib. […] These include, IL-6, IL-8, vascular endothelial growth factor (VEGF), monocyte chemotactic protein 1 (MCP-1), platelet derived growth factor BB (PDGF-BB), dickkopf-1 (DKK-1, inhibitor of Wnt signaling pathway), osteoprotegerin (OPG, a negative regulator of bone remodeling) and MMP-3, which have been implicated in tumor metastasis, angiogenesis, cancer stem cell amplification or drug resistance. In addition, five tumoroid biomarkers that are found expressed abundantly in MCTs (vs SCTs) and can be considered as predictors of clinical efficacy for lapatinib, included, a) marker for cell proliferation: Ki67, and b) stromal derived factors: IL-6, MCP-1, VEGF and DKK-1 (FIG. 9D).

With `CS(=O)(=O)CCNCc1ccc(-c2ccc3ncnc(Nc4ccc(OCc5cccc(F)c5)c(Cl)c4)c3c2)o1` [lapatinib] the pIC50 [1] was under 5.00 and the pIC50 [2] was over 5.60.
